Laboratory results published in ChEMBL document CHEMBL1201862, “PubChem BioAssay data set” (2004).
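Step 1: Grow cells in 96-well plates. Step 2: Expose to compound for 48 hours at 5 concentrations. Step 3: Interpolate endpoints linearly; if unreached, use highest concentration. The concentration for 50% growth inhibition is given as GI50.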 Activity calls are given as the source filed them. Cut-off read from the data, not from the text of the source: active = GI50 up to about 1.1 µM and inactive = higher.

Key:
Assay in all cases: inhibition of tumour cell growth, NCI panel, 48 h
[1] = test system: BT-549
[2] = test system: MDA-N
[3] = test system: DLD-1
[4] = test system: DMS-114
[5] = test system: DMS-273
[6] = test system: KM-20L2
[7] = test system: M19-MEL
[8] = test system: RXF 631
[9] = test system: HOP-18

`OCCSCC(O)Cn1cnc2c(O)nc(Nc3ccccc3)nc21` (centres undefined) was tested, and the GI50 [1] was > 100 µM (inactive) and the GI50 [2] was > 100 µM (inactive).

For `CCNc1cc2c(cc1O)CC[C@@H]1[C@@H]2CC[C@]2(C)[C@@H](O)CC[C@@H]12`, the GI50 [1] was 15.6 µM (inactive) and the GI50 [2] was 0.232 µM (active).

`O=C(CCc1cc(-c2ccco2)n(-c2ccc([N+](=O)[O-])cc2[N+](=O)[O-])n1)Nc1ccccc1` was tested, and the GI50 [3] was > 100 µM (inactive), the GI50 [4] was > 100 µM (inactive) and the GI50 [5] was > 100 µM (inactive). For the same compound, the GI50 [6] was > 100 µM (inactive), the GI50 [7] was > 100 µM (inactive) and the GI50 [8] was > 100 µM (inactive).

In the case of `Cc1cc(Oc2cnc(=O)[nH]c2)cs1`, the GI50 [1] is reported as > 100 µM (inactive) and the GI50 [2] is reported as > 100 µM (inactive).

For `COc1ccc(CN(CCN(C)C)c2ccccn2)cc1.Cn1c(=O)c2[nH]c(Br)nc2n(C)c1=O`, the GI50 [3] was > 100 µM (inactive), the GI50 [4] was > 100 µM (inactive) and the GI50 [9] was > 100 µM (inactive). The GI50 [6] was > 100 µM (inactive).

`FC(F)(F)c1nc2cc(SSc3cc4nc(C(F)(F)F)[nH]c4cc3Cl)c(Cl)cc2[nH]1` was tested, and the GI50 [1] was > 100 µM (inactive).

In the case of `Oc1cc(-c2ccc(Cl)cc2)cn2c1nc1ccccc12`, the GI50 [2] is reported as 2.99 µM (inactive).

For `CC1(C)OP(=O)(O)C=C1Sc1ccc([N+](=O)[O-])cc1[N+](=O)[O-]`, the GI50 [2] was > 100 µM (inactive).

With `O=C1OC(c2ccccc2)=N/C1=C/NC(Cc1c[nH]cn1)C(=O)O` (centres undefined) the GI50 [3] was > 100 µM (inactive), the GI50 [4] was > 100 µM (inactive) and the GI50 [5] was > 100 µM (inactive). The GI50 [6] was > 100 µM (inactive) and the GI50 [7] was > 100 µM (inactive).

In the case of `O=C1CCC2(c3ccc(F)cc3)Nc3ncccc3N12` (centres undefined), the GI50 [3] is reported as > 100 µM (inactive), the GI50 [6] is reported as > 100 µM (inactive) and the GI50 [7] is reported as > 100 µM (inactive).

With `COc1ccc(-c2nc(SCC(=O)N/N=C/c3ccc([N+](=O)[O-])cc3)[nH]c2-c2ccc(OC)cc2)cc1` the GI50 [1] was 19.1 µM (inactive) and the GI50 [2] was 3.16 µM (inactive).

`C=CCN1CN(C2CCCCC2)CSC1=S` was tested, and the GI50 [1] was 7.69 µM (inactive) and the GI50 [2] was 2.16 µM (inactive).

In the case of `CC1=C(O)C(=O)C2C(=O)C1C(C)C2c1ccc(Cl)cc1` (centres undefined), the GI50 [3] is reported as > 100 µM (inactive), the GI50 [5] is reported as > 100 µM (inactive) and the GI50 [7] is reported as > 100 µM (inactive). For the same compound, the GI50 [8] was > 100 µM (inactive).

With `O=C(Nc1sccc1S(=O)(=O)c1ccccc1)c1cccnc1` the GI50 [1] was > 37.1 µM (inactive) and the GI50 [2] was 1.02 µM (active).

`O=C(CO)CC(=O)C(=O)Nc1cccc(C(F)(F)F)c1` was tested, and the GI50 [3] was > 100 µM (inactive), the GI50 [5] was > 100 µM (inactive) and the GI50 [6] was > 100 µM (inactive).

For `COc1ccc(/C=C2\NC(=S)N(CN3CCCCC3)C2=O)cc1`, the GI50 [2] was 70.1 µM (inactive).

In the case of `Cc1cc(=O)n(-c2cc3cccccc-3n2)[nH]1`, the GI50 [3] is reported as 5.61 µM (inactive), the GI50 [4] is reported as 2.38 µM (inactive) and the GI50 [9] is reported as 3.95 µM (inactive). For the same compound, the GI50 [6] was 38.4 µM (inactive) and the GI50 [7] was 3.95 µM (inactive).

In the case of `CCOC(=O)c1c(CN2CCOCC2)n(Cc2ccccc2)c2c1cc(O)c1nc(C)c(C)nc12`, the GI50 [1] is reported as 11.5 µM (inactive) and the GI50 [2] is reported as 72.8 µM (inactive).

In the case of `Cc1ccc(C(=O)Nc2ccc(CP(=O)(O)O)cc2)cc1NC(=O)c1cccc(N)c1`, the GI50 [1] is reported as > 100 µM (inactive) and the GI50 [2] is reported as > 100 µM (inactive).

For `Cc1ccc(Nc2n[nH]c(=S)s2)cc1`, the GI50 [2] was 59.4 µM (inactive).

With `CCOC(=O)C(SCCO)C(C(=O)OCC)n1ccc(N)nc1=O` (centres undefined) the GI50 [1] was > 100 µM (inactive) and the GI50 [2] was > 100 µM (inactive).

With `CC(=O)Nc1ccc2cc(C)c(O)nc2n1` the GI50 [1] was > 100 µM (inactive) and the GI50 [2] was > 100 µM (inactive).

In the case of `CN(C)C(=S)C(Cl)(c1ccccc1)c1ccccc1`, the GI50 [1] is reported as > 100 µM (inactive) and the GI50 [2] is reported as 47.6 µM (inactive).

With `O=C(O)C1CCCN1Cc1ccc2c(c1)OCO2` (centres undefined) the GI50 [1] was > 100 µM (inactive) and the GI50 [2] was > 100 µM (inactive).

`C=C(Cl)/C(=C\Cl)CCC(Br)C(C)C` (centres undefined) was tested, and the GI50 [1] was > 100 µM (inactive) and the GI50 [2] was 41 µM (inactive).

With `CC(C)CCCC(C)[C@H]1CCC2[C@@H]3CCC4Cc5nc6c(nc5C[C@]4(C)C3CC[C@@]21C)CC1CC[C@@H]2C(CC[C@@]3(C)C2CC[C@@H]3C(C)CCCC(C)C)[C@@]1(C)C6` (some centres undefined) the GI50 [1] was > 100 µM (inactive) and the GI50 [2] was > 100 µM (inactive).

In the case of `C=C1CC2(CCCC3(CC(=C)C(=O)O3)C2(C)C)OC1=O` (centres undefined), the GI50 [1] is reported as 3.75 µM (inactive).

For `CC12N=NNC1C(=O)NC2=O` (centres undefined), the GI50 [3] was > 100 µM (inactive), the GI50 [4] was > 100 µM (inactive) and the GI50 [5] was > 100 µM (inactive). For the same compound, the GI50 [6] was > 100 µM (inactive) and the GI50 [7] was > 100 µM (inactive).

With `CCC1CCN=C(Cn2cc(C)c(=O)[nH]c2=O)N1` (centres undefined) the GI50 [1] was > 100 µM (inactive) and the GI50 [2] was > 100 µM (inactive).

For `Nc1nc(Br)nc2ncn(C3CC(O)C(CO)O3)c12` (centres undefined), the GI50 [1] was 46 µM (inactive) and the GI50 [2] was > 68.7 µM (inactive).

With `COC(=O)CCC(=O)Nc1cccc(C(F)(F)F)c1` the GI50 [3] was > 100 µM (inactive), the GI50 [4] was > 100 µM (inactive) and the GI50 [5] was > 100 µM (inactive). For the same compound, the GI50 [9] was > 100 µM (inactive), the GI50 [6] was > 100 µM (inactive) and the GI50 [7] was > 100 µM (inactive).

In the case of `C[C@@]12C[C@@H](c3ccccc3O1)N1CCCCSC1=N2`, the GI50 [1] is reported as > 100 µM (inactive) and the GI50 [2] is reported as > 100 µM (inactive).

`COc1cc(/C=C2/SC(c3ccccc3)N(c3ccccc3)C2=O)cc(OC)c1OC` (centres undefined) was tested, and the GI50 [1] was 29 µM (inactive).

In the case of `CC(=O)N1C(Nc2cccc3nc(C)ccc23)CCN1c1ccccc1` (centres undefined), the GI50 [1] is reported as > 10 µM (inactive) and the GI50 [2] is reported as > 10 µM (inactive).

`Cc1cc2c(C)nn(Cc3ccc(Cl)cc3Cl)c2c(C#N)c1C` was tested, and the GI50 [3] was > 100 µM (inactive), the GI50 [5] was > 100 µM (inactive) and the GI50 [9] was > 100 µM (inactive). For the same compound, the GI50 [6] was > 100 µM (inactive) and the GI50 [7] was > 100 µM (inactive).
